Where a name gives a salt, the structure may show the parent alone. Read-outs that look alike come from different tables or passages of the source.
What was measured:
[1] = system: primary cortico-hippocampal neuron cultures
Procedure: (§1) For in vitro treatments drugs available from “The Spectrum Collection” in stocks of 10 mM in DMSO were applied directly to cultures to the desired concentrations (final 1% DMSO); control primary neuron cultures from Tg2576 embryos were treated with vehicle resulting in a final 1% DMSO.
(§2) Cell viability was assessed using a commercial available LDH assay kit according to the manufacture's instruction (Promega).

Aβ1-42 [2] = assay: Aβ1-42 content in conditioned medium of primary cortico-hippocampal neuron cultures from Tg2576 mice (ELISA; primary and secondary dose-response screening); format: cell-based, mouse; settings: for activity at 100 µM / EC50: Mus musculus; for activity at 100 µM: read-out: Ab1-42 (% of ctl)
Aβ1-40 = Aβ1-40 content in conditioned medium of primary cortico-hippocampal neuron cultures from Tg2576 mice (ELISA; primary and secondary dose-response screening); format: cell-based, mouse; settings: for activity at 100 µM / EC50: Mus musculus; for activity at 100 µM: read-out: Ab1-40 (% of ctl)
How it was run: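 Primary cortico-hippocampal neurons from embryonic Tg2576 mice were plated at 1.0×10^5 cells per well on poly-D-lysine-coated 96-well plates in Neurobasal with 2% B27, 0.5 mM L-glutamine and 1% penicillin-streptomycin. Cultures received drug in 1% DMSO, and Aβ1-40 in the conditioned medium was measured by BioSource ELISA 24 hours after treatment, relative to vehicle controls.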

[3] = system: primary cortico-hippocampal neuron cultures; remark: listed apart in the source
Aβ1-42 [4] = assay: Aβ1-42 content in conditioned medium of primary cortico-hippocampal neuron cultures from Tg2576 mice (ELISA; primary and secondary dose-response screening); format: cell-based, mouse; settings: for Ab1-42 (% of ctl) / activity at 100 µM: drug 100 μM; for reducing Aβ1-42: <85% of ctl; for activity at 100 µM: Mus musculus, Neuron, 24 h, read-out: Ab1-42 (% of ctl)
How it was run: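 This screen tested cardiovascular drugs for Aβ-lowering in Tg2576 embryonic cortico-hippocampal neuron cultures plated at 1.0×10^5 cells per well in poly-D-lysine-coated 96-well plates with Neurobasal/B27 medium. Drugs at 100 μM were added directly to the medium in duplicate, with 1% DMSO alone as the control. Conditioned medium was then collected, and its Aβ1-42 level was quantified with BioSource ELISA kits.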

[5] = system: primary cortico-hippocampal neuron cultures; assay: MTT in primary screening
Tg2576 mice [6] = assay: blood pressure (systolic, diastolic, MAP) by tail-cuff; format: in vivo, mouse; settings: Tg2576, 3 weeks
Procedure: FIG. 1 Tg2576 mice are characterized by normal blood pressure under basal conditions. Baseline measurements of systolic, diastolic blood pressure, and mean arteriole blood pressure (MAP) in ˜11 month old female Tg2576 mice. Strain-, age-, gender-matched WT mice were measured using a commercial blood pressure analysis system designed specifically for small rodents (Hatteras Instruments, NC). Following manufacturer's instruction, mice were temporarily immobilized in a restraining chamber and an inflated tail-cuff wrapped around the tail was used to measure the systolic pressure, diastolic pressure, and MAP. Each blood pressure determination was calculated as the mean of 10 individual measurements per animal (n=6-10 group).
FIG. 6A-C show body weight of mice in response to ˜3 weeks of treatment. […] FIG. 6D-F show the assessment of systolic, diastolic, and MAP blood pressure in Tg2576 mice in response to drug doses below or within the range of those prescribed in hypertension. Blood pressure measurements were conducted using a commercial blood pressure analysis system designed specifically for small rodents (Hatteras Instruments, NC). Following manufacturer's instruction, mice were temporarily immobilized in a restraining chamber and an inflated tail-cuff wrapped around the tail was used to measure pressures. Each blood pressure determination was calculated as the mean of 10 individual measurements per animal. In A-F, values represent mean±SEM values, n=3-5 mice per group. 2-tailed t-test: *P<0.05.
Assessment of blood pressure and glucose utilization. Mouse blood pressure was routinely recorded using a commercial blood pressure analysis system designed specifically for small rodents (Hatteras Instruments, NC). […] Briefly, mice were given a single dose of glucose post-prandially (i.p. 2 g/kg body weight). Blood was collected from the tail-vein periodically over a 2-hour period. Blood glycemic content was assessed using the OneTouch LifeScan System, (LifeScan, Milpitas, Calif.) following the manufacturer's instruction.

Tg2576 mice [7] = assay: tolerability: body weight, fluid consumption, glucose tolerance; settings: Tg2576, short-term dosing
[8] = system: primary cortico-hippocampal neuron cultures; assay: lactate dehydrogenase (LDH) activity assay in parallel neuron cultures; settings: for LDH at E-5M % of change: drug at E-5M
Procedure: as §1, §2

[9] = Primary Screening, table sorted by Aβ1-40
[10] = primary screening, Tg2576 neuron cultures, table sorted by Aβ1-42
[11] = Primary Screening, drug 100 μM, table sorted by Aβ1-40
[12] = primary screening, drug 100 μM, Tg2576 neuron cultures, table sorted by Aβ1-42
[13] = 24 h, primary screening, drug 100 μM, Tg2576 neuron cultures, table sorted by Aβ1-42
[14] = primary screening, table sorted by Aβ1-42
[15] = Neuron, 24 h, Primary Screening, drug 100 μM, table sorted by Aβ1-40
[16] = Neuron, 24 h, primary screening, drug 100 μM, Tg2576 neuron cultures, table sorted by Aβ1-42
[17] = Neuron, 24 h, secondary dose-response screening 0.01-100 μM, 24 hours, read-out: EC50 (molar) Aβ1-42

N=C(N)NCCN1CCCCCCC1 [Guanethidine Sulfate]
LDH (% of ctl) ([1]; Tg2576, mouse): 1057.3 % of ctl

Cl.NCCc1ccc(O)c(O)c1 [Dopamine Hydrochloride]
reducing Aβ1-42 (Aβ1-42 [2]): useful in reducing Aβ1-42 | activity at 100 µM (Aβ1-42 [2]; Neuron, 24 h): 78.3% | LDH (% of ctl) ([1]; Tg2576, mouse): 559.5 % of ctl | reduced Aβ1-40 (Aβ1-40): reduced Aβ1-40 | activity at 100 µM (Aβ1-40; Neuron, 24 h): 85% | MTT (% of ctl) ([3]; Tg2576, mouse): 95.7 % of ctl

CC(C)NCC(O)COc1cccc2ccccc12.Cl (stereo not drawn) [Propranolol Hydrochloride (−)]
Ab1-42 (% of ctl) (Aβ1-42 [4]; [9]): 32.8 % of ctl | reducing Aβ1-42 (Aβ1-42 [4]; primary screening): useful in reducing Aβ1-42 | Ab1-42 (% of ctl) (Aβ1-42 [4]; [10]): 32.8 % of ctl | LDH (% of ctl) [1]: 166.6 % of ctl | Ab1-40 (% of ctl) (Aβ1-40; [11]): 55.0 % of ctl | reduced Aβ1-40 (Aβ1-40; primary screening, <85% of ctl): reduced Aβ1-40 | Ab1-40 (% of ctl) (Aβ1-40; [12]): 55.0 % of ctl

CC[C@H]1[C@@H]2C[C@H]3[C@@H]4N(C)c5ccccc5[C@]45C[C@@H]([C@H]2[C@H]5O)N3[C@@H]1O [Ajmaline]
Ab1-42 (% of ctl) (Aβ1-42 [4]; [9]): 103.3 % of ctl | activity at 100 µM (Aβ1-42 [2]; [13]): 103% | LDH (% of ctl) ([1]; Tg2576, mouse): 97.6 % of ctl | activity at 100 µM (Aβ1-40; [13]): 114% | Ab1-40 (% of ctl) (Aβ1-40; [11]): 114.0 % of ctl | MTT (% of ctl) [5, 9]: 90.3 % of ctl | MTT (% of ctl) [5, 14]: 90.3 % of ctl

COc1cccc(OC)c1OCCNCC1COc2ccccc2O1.Cl (stereo not drawn) [2-(2,6-Dimethoxyphenoxyethyl) Aminomethyl-1,4-Benzodioxane Hydrochloride]
Ab1-42 (% of ctl) (Aβ1-42 [2]): 94.7 % of ctl | LDH (% of ctl) [1]: 103.9 % of ctl | Ab1-40 (% of ctl) (Aβ1-40): 82.6 % of ctl | reduced Aβ1-40 (Aβ1-40): reduced Aβ1-40 | MTT (% of ctl) [3]: 95.5 % of ctl

CCCCc1nc(Cl)c(CO)n1Cc1ccc(-c2ccccc2-c2nn[nH]n2)cc1 [Losartan]
activity at 100 µM (Aβ1-42 [4]; [9]): 97.1% | activity at 100 µM (Aβ1-42 [4]; [10]): 97.1% | systolic, diastolic, MAP blood pressure (Tg2576 mice [6]; doses within the range used for hypertension): decreased systolic, diastolic, and MAP blood pressure | systolic, diastolic, MAP blood pressure (Tg2576 mice [6]; doses ~3 fold below the minimal hypertension dose): did not significantly influence either systolic, diastolic or MAP blood pressure | fluid intake (Tg2576 mice [7]): did not significantly influence the amount of fluid intake | EC50 (Aβ1-42 [2]; Neuron, Table IV, dose-response 0.01-100 μM, read-out: EC50 (M): Ab-lowering activity): 0.0001 M | activity at 100 µM (Aβ1-40; [15]): 76% | activity at 100 µM (Aβ1-40; [16]): 76% | EC50 (Aβ1-40; Neuron, Table IV, dose-response 0.01-100 μM, read-out: EC50 (M): Ab-lowering activity Abeta1-40): 0.000117 M | reduced Aβ1-40 (Aβ1-40; primary screening, <85% of ctl): reduced Aβ1-40 | LDH (% of ctl) [8, 9]: 110.4 % of ctl | LDH (at 5F-5 M) ([8]; Table IV): no change | LDH (% of ctl) [8, 14]: 110.4 % of ctl | MTT (% of ctl) [5, 9]: 71.3 % of ctl | MTT (% of ctl) [5, 14]: 71.3 % of ctl

COc1ccc(Cc2nccc3cc(OC)c(OC)cc23)cc1OC [Papaverine Hydrochloride]
Ab1-42 (% of ctl) (Aβ1-42 [4]; [9]): 30.1 % of ctl | reducing Aβ1-42 (Aβ1-42 [4]; primary screening): useful in reducing Aβ1-42 | activity at 100 µM (Aβ1-42 [2]; [13]): 30.1% | EC50 (Aβ1-42 [2]; Neuron, secondary dose-response screening 0.01-100 μM, 24 hours, read-out: EC50 (molar) Aβ1-42): 1.91e-05 M | activity at 100 µM (Aβ1-40; [13]): 15.3% | EC50 (Aβ1-40; Neuron, secondary dose-response screening 0.01-100 μM, 24 hours, read-out: EC50 (molar) Aβ1-40): 1.72e-05 M | Ab1-40 (% of ctl) (Aβ1-40; [11]): 15.3 % of ctl | reduced Aβ1-40 (Aβ1-40; primary screening, <85% of ctl): reduced Aβ1-40 | MTT (% of ctl) ([3]; Tg2576, mouse, 100 µM): 92.2 % of ctl | LDH (% of ctl) [8, 9]: 118.4 % of ctl | LDH at E-5M % of change [8]: −8.9% | LDH (% of ctl) [8, 14]: 118.4 % of ctl

CC(C)N(CCC(C(N)=O)(c1ccccc1)c1ccccn1)C(C)C (stereo not drawn) [Disopyramide Phosphate]
activity at 100 µM (Aβ1-42 [4]; [9]): 66.3% | activity at 100 µM (Aβ1-42 [4]; [10]): 66.3% | reducing Aβ1-42 (Aβ1-42 [4]; primary screening): useful in reducing Aβ1-42 | EC50 (Aβ1-42 [2]; [17]): 5.33e-05 M | activity at 100 µM (Aβ1-40; [15]): 83.5% | activity at 100 µM (Aβ1-40; [16]): 83.5% | EC50 (Aβ1-40; Neuron, 24 h, read-out: EC50 (molar) Aβ1-40): 7.78e-10 M | reduced Aβ1-40 (Aβ1-40; primary screening, <85% of ctl): reduced Aβ1-40 | LDH (% of ctl) [8, 9]: 125.8 % of ctl | LDH at E-5M % of change [8]: −3.7% | LDH (% of ctl) [8, 14]: 125.8 % of ctl | MTT (% of ctl) [5, 9]: 71.2 % of ctl | MTT (% of ctl) [5, 14]: 71.2 % of ctl

C[C@H]1O[C@@H](O[C@H]2[C@@H](O)C[C@H](O[C@H]3[C@@H](O)C[C@H](O[C@H]4CC[C@@]5(C)[C@H](CC[C@@H]6[C@@H]5CC[C@]5(C)[C@@H](C7=CC(=O)OC7)CC[C@]65O)C4)O[C@@H]3C)O[C@@H]2C)C[C@H](O)[C@@H]1O [Digitoxin]
Ab1-42 (% of ctl) (Aβ1-42 [4]; [9]): 92.9 % of ctl | activity at 100 µM (Aβ1-42 [2]; [13]): 92.9% | activity at 100 µM (Aβ1-40; [13]): 68.3% | Ab1-40 (% of ctl) (Aβ1-40; [11]): 68.3 % of ctl | reduced Aβ1-40 (Aβ1-40; primary screening, <85% of ctl): reduced Aβ1-40 | LDH (% of ctl) [8, 9]: 106.4 % of ctl | LDH (% of ctl) [8, 14]: 106.4 % of ctl | MTT (% of ctl) [5, 9]: 86.0 % of ctl | MTT (% of ctl) [5, 14]: 86.0 % of ctl

COCCOC(=O)C1=C(C)NC(C)=C(C(=O)OC(C)C)C1c1cccc([N+](=O)[O-])c1 (stereo not drawn) [Nimodipine]
activity at 100 µM (Aβ1-42 [4]; [9]): 90.9% | activity at 100 µM (Aβ1-42 [4]; [10]): 90.9% | EC50 (Aβ1-42 [2]; Neuron, 24 h, conditioned medium of primary cortico-hippocampal neuron cultures from Tg2576 embryos, 24 hours after treatment, relative to vehicle (1% DMSO) control, read-out: EC50 (molar) Aβ1-42): 2.81e-05 M | EC50 (Aβ1-42 [2]; [17]): 2.81e-05 M | activity at 100 µM (Aβ1-40; [15]): 79.1% | activity at 100 µM (Aβ1-40; [16]): 79.1% | LDH (% of ctl) [8, 9]: 100.4 % of ctl | LDH at E-5M % of change [8]: −4.0% | LDH (% of ctl) [8, 14]: 100.4 % of ctl | MTT (% of ctl) [5, 9]: 115.6 % of ctl | MTT (% of ctl) [5, 14]: 115.6 % of ctl

Veratrine Sulfate
Ab1-42 (% of ctl) (Aβ1-42 [4]; [9]): 87.1 % of ctl | Ab1-42 (% of ctl) (Aβ1-42 [4]; [10]): 87.1 % of ctl | LDH (% of ctl) [1]: 124.4 % of ctl | Ab1-40 (% of ctl) (Aβ1-40; [11]): 58.5 % of ctl | reduced Aβ1-40 (Aβ1-40; primary screening, <85% of ctl): reduced Aβ1-40 | Ab1-40 (% of ctl) (Aβ1-40; [12]): 58.5 % of ctl | MTT (% of ctl) [3]: 84.4 % of ctl
